Literature values as cited in US11554095B1, “Mitomycin-C bladder instillation syringe kit” (Edge Pharma, LLC, priority 2019, dated 2023).

Experiments:
[1] = urine

CO[C@@]12[C@H](COC(N)=O)C3=C(C(=O)C(C)=C(N)C3=O)N1C[C@@H]1N[C@@H]12 [MMC, Mitomycin-C]
pH of solution in water (5 mg/mL solution in water): 6.0-7.5 | pH of saturated solution (saturated solution): 5.0-9.0 | decrease in MMC concentrations ([1]; pH 5, after 2 hours): 44% | loss of MMC ([1]; pH 7, after 2 hours): less than 4%
